How the values were obtained:
[1] = tested on: brain aging; conditions: 1 g daily, 12 weeks; cited from earlier work
[2] = tested on: vegetarian subjects; conditions: 5 g/day for six weeks; cited from earlier work
[3] = tested on: Caco2 monolayer; experiment: Permeability of α-GPC through a Caco2 monolayer in the presence and absence of blueberry polyphenol extract; type: in vitro ADME; set-up: cumulative L-α-GPC, averaged over runs: scale not given here; conditions: for cumulative L-α-GPC, averaged over runs: average of runs 1 and 2; for cumulative L-α-GPC: 5 mM α-GPC in DPBS alone or with 1 mg/ml blueberry polyphenol extract
Method: In another series of experiments, the permeability of α-GPC through a Caco2 monolayer was measured to determine whether the presence of a blueberry-based polyphenol extract affected permeability.
More particularly, donor GPC concentrations were reduced to 5 mM. […] This experiment consisted of two independent runs (as identified below as run 1 and run 2). […] The data from the runs is summarized in Table 2, illustrated in FIG. 2 (Total Alpha GPC permeability through a Caco2 monolayer) and averaged below in Table 3. The averaged data is illustrated in FIG. 3. In each of the graphs, the vertical axis units are cumulative L-α-GPC in μg/cm2 and the horizontal axis units are minutes.

[4] = tested on: hippocampus of the rats; conditions: cited from earlier work
[5] = tested on: patients with probable senile dementia of Alzheimer's type; conditions: cited from earlier work
[6] = tested on: patients with dementia disorders; conditions: 1570 patients in 10 studies; cited from earlier work
[7] = tested on: cognitive impairment due to Alzheimer's disease; conditions: 400 mg capsules three times daily; cited from earlier work
[8] = tested on: rats; conditions: 250 mg/kg injections for three weeks, three weeks after pilocarpine; cited from earlier work
[9] = 100-300 mg/day; cited from earlier work

NC(=O)CN1CC(O)CC1=O (centres unmarked) [oxiracetam]
clinical response in brain aging [1]: early improvement which was maintained during the therapy but was rapidly attenuated after discontinuation of the therapy

CN(CC(=O)O)C(=N)N [creatine]
working memory and intelligence [2]: Positive results

C[N+](C)(C)CCOP(=O)([O-])OC[C@H](O)CO [α-GPC, Alpha-glycerylphosphorylcholine]
effect of α-GPC on permeation of the blueberry polyphenols through the Caco2 monolayer [3]: did not significantly change
cumulative L-α-GPC, averaged over runs ([3]; 15 min): 0.128 μg/cm2
cumulative L-α-GPC, averaged over runs ([3]; 30 min): 0.471 μg/cm2
cumulative L-α-GPC, averaged over runs ([3]; 45 min): 0.643 μg/cm2
cumulative L-α-GPC, averaged over runs ([3]; 60 min): 0.815 μg/cm2
cumulative L-α-GPC, averaged over runs ([3]; 75 min): 1.017 μg/cm2
cumulative L-α-GPC, averaged over runs ([3]; 90 min): 1.292 μg/cm2
cumulative L-α-GPC ([3]; run 1, 15 min): 18.75 μg/cm2
cumulative L-α-GPC ([3]; run 1, 30 min): 41.37 μg/cm2
cumulative L-α-GPC ([3]; run 1, 45 min): 67.92 μg/cm2
cumulative L-α-GPC ([3]; run 1, 60 min): 103.2 μg/cm2
cumulative L-α-GPC ([3]; run 1, 75 min): 150.0 μg/cm2
cumulative L-α-GPC ([3]; run 1, 90 min): 222.4 μg/cm2
cumulative L-α-GPC ([3]; run 2, 15 min): 47.16 μg/cm2
cumulative L-α-GPC ([3]; run 2, 30 min): 200.9 μg/cm2
cumulative L-α-GPC ([3]; run 2, 45 min): 262.8 μg/cm2
cumulative L-α-GPC ([3]; run 2, 60 min): 316.1 μg/cm2
cumulative L-α-GPC ([3]; run 2, 75 min): 373.3 μg/cm2
cumulative L-α-GPC ([3]; run 2, 90 min): 442.1 μg/cm2
clinical response in brain aging [1]: slower but more sustained
acetylcholine release in the hippocampus ([4]; 75 mg/kg i.g.): able to increase acetylcholine release
dose with maximum effect on acetylcholine release ([4]; i.g.): 300 mg/kg
improvements compared with the ST200 patients ([5]; ST200 1000 mg morning and 500 mg afternoon): significantly better
intellectual and emotional impairments ([5]; oral 800 mg morning and 400 mg afternoon, six months): significantly improved
patient clinical results, cognitive symptoms of adult-onset dementia disorders [6]: improved patient clinical results
treatment of the cognitive symptoms of Alzheimer's disease [7]: useful
cognitive function [8]: improved
neurogenesis [8]: increased
memory, concentration, and focus [9]: helps maintain and improve
peak power and force output during strenuous exercises [9]: helps to increase

From patent publication US20210361731A1 (Phenolics, LLC, priority 2020, published 2021)
